Laboratory results taken from patent US20180071317A1, “USE OF AGENTS THAT ALTER THE PERITUMORAL ENVIRONMENT FOR THE TREATMENT OF CANCER” (SERVICIO ANDALUZ DE SALUD, priority 2011, published 2018).

Legend:
[1] = test system: fibroblast cells in co-culture with cells isolated from primary human tumors; assay: Marker expression (IHC) in fibroblasts co-cultured with primary human tumor cells (colon, pancreatic, lung carcinoma, glioma, multiple myeloma); format: cell-based
Protocol: To check that the interaction of the human primary tumor cells with stromal cells, [human fibroblasts,] stimulates the secretion of substances of importance for survival and tumor progression, co-cultures were performed using stromal cells with human fibroblast-tumor cells obtained directly from primary human tumors.
On this occasion, in order to identify, using immunohistochemical techniques, the secretion of substances of importance for the survival and progression of tumors, the following antibodies were used: TGF-α (SAB4502953), TGF-β1 (SAB4502954), TGF-β2 (SAB4502956), TGF-β3 (SAB4502957), SPARC (HPA002989), MMP-3 (HPA007875), MMP-7 (SAB4501894), MMP-9 (SAB4501896), MMP-11 (SAB4501898) MMP-13 (SAB4501900) and MMP-14 (SAB4501901) using specific antibodies against them. All antibodies used were rabbit polyclonal antibodies obtained from Sigma-Aldrich and were used at a concentration of 1/1000 to achieve these immunohistochemical studies. All experiments were carried out sixfold.

mononuclear cells = assay: Marker expression (immunohistochemistry) in mononuclear blood cells with SP alone or with NK1 antagonists; format: cell-based, human; details: SP 1 μM + antagonist 1 μM; 48 h
Description: Briefly, heparinized blood from healthy donors was centrifuged so as to separate the various components thereof. Red blood cells remained at the bottom of the tube. Above them was a small white layer composed of the white blood cells and above, on top of the tube, the blood plasma. The layer of white cells was distributed in a culture plate of 24 wells by adding in each the same concentration of blood plasma from the same donor, supplemented with 1% antibiotic-antimycotic (Invitrogen). In each well, approximately 1000 cells (PHF) skin from the dermis were further added, obtained as previously described in Example 2. […] After 48 hours of incubation, cells were collected and embedded in paraffin for expression analysis by immunohistochemical techniques (as described in Example 1).
The expression of TGF molecular markers (anti-TGF 2, SAB4502956) and NF-kB (anti-NF-kB, SAB4501992) using specific antibodies against them were analyzed. All antibodies used were rabbit polyclonal antibodies obtained from Sigma Aldrich and were used at a concentration of 1/1000. All experiments were carried out sixfold.

[2] = test system: fibroblasts (PHF) co-cultured with tumor cells in human prostate carcinoma (22Rv1); assay: Marker expression (IHC) in PHF co-cultured with 22Rv1 tumor cells; format: cell-based; details: co-culture with 22Rv1; SP 1 μM + antagonist 1 μM; 48 h;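 note: cultures grown on fresh plasma from a healthy donor, each experiment run sixfold, values give the percentage of fibroblasts positive for the given marker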
Protocol: (§1) All cultures were maintained 48 hours, following which the same cells were included in paraffin blocks for subsequent analysis of the expression of different markers by immunohistochemistry (see Example 1). […] All experiments were carried out sixfold. Analyzed markers in fibroblast cells (stromal cells) were: TGF-α, TGF-β1, TGF-β2, TGF-β3, SPARC, MMP-3, MMP-7, MMP-9, MMP-11, MMP-13 and MMP-14.

[3] = test system: fibroblasts (PHF) co-cultured with tumor cells of lung carcinoma (A-427); assay: Marker expression (IHC) in PHF co-cultured with A-427 tumor cells; format: cell-based, human; details: co-culture with A-427 lung carcinoma; SP 1 μM + antagonist 1 μM; 48 h;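 note: cultures grown in human blood plasma from a healthy donor, value is the percentage of fibroblasts positive for each marker, six replicates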
Protocol: as §1

[4] = test system: fibroblasts (PHF) co-cultured with tumor cells of human pancreatic adenocarcinoma (CAPAN-1); assay: Marker expression (IHC) in PHF co-cultured with CAPAN-1 tumor cells; format: cell-based; details: co-culture with CAPAN-1; SP 1 μM + antagonist 1 μM; 48 h;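 note: cultures grown in fresh plasma from a healthy human donor, run in six replicates, value is percent of fibroblasts positive for each marker, compared with fibroblasts cultured alone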
[5] = test system: fibroblasts (PHF) co-cultured with human fibrosarcoma tumor cells (HT-1080); assay: Marker expression (IHC) in PHF co-cultured with HT-1080 tumor cells; format: cell-based; details: co-culture with HT-1080; SP 1 μM + antagonist 1 μM; 48 h;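 note: cultures grown in fresh human plasma from a healthy donor, six replicates, value is percent of fibroblasts positive for the marker, compared with fibroblasts cultured without tumor cells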
Protocol: as §1

[6] = test system: fibroblasts (PHF) co-cultured with tumor cells, thyroid carcinoma; assay: Marker expression (IHC) in PHF co-cultured with thyroid carcinoma tumor cells; format: cell-based, human; details: co-culture with thyroid carcinoma cells; SP 1 μM + antagonist 1 μM; 48 h;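 note: grown in fresh plasma from a healthy human donor, read-out is percent of fibroblasts positive for each marker, compared with fibroblasts cultured alone, run in six replicates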
Protocol: as §1

[7] = test system: fibroblasts (PHF) co-cultured with tumor cells, thyroid carcinoma (reference A-427); assay: as above; format: cell-based, human; details: co-culture with thyroid carcinoma cells; SP 1 μM + antagonist 1 μM; 48 h
Protocol: as §1

[8] = Primary tumor cells (colon carcinoma) co-cultured + fibroblast + SP (1 μM) + NK1 antagonist 1 μM
[9] = co-culture with cells isolated from glioma, SP 1 μM + antagonist 1 μM
[10] = co-culture with cells isolated from lung cancer, SP 1 μM + antagonist 1 μM
[11] = co-culture with cells isolated from multiple myeloma, SP 1 μM + antagonist 1 μM
[12] = co-culture with cells isolated from pancreatic carcinoma, SP 1 μM + antagonist 1 μM

Cc1cc(F)ccc1[C@H]1CNCCN1C(=O)N(C)[C@H](C)c1cc(C(F)(F)F)cc(C(F)(F)F)c1 [Vestipitant]
0%: Percentage of fibroblast cells which expressed MMP-3 [1, 8] | Percentage of fibroblast cells which expressed MMP-7 [1, 8] | Percentage of fibroblast cells which expressed MMP-9 [1, 8] | Percentage of fibroblast cells which expressed MMP-11 [1, 8] | Percentage of fibroblast cells which expressed MMP-13 [1, 8] | Percentage of fibroblast cells which expressed MMP-14 [1, 8] | Percentage of fibroblast cells which expressed SPARC [1, 8] | Percentage of fibroblast cells which expressed TGFα [1, 8] | Percentage of fibroblast cells which expressed TGFβ1 [1, 8] | Percentage of fibroblast cells which expressed TGFβ2 [1, 8] | Percentage of fibroblast cells which expressed TGFβ3 [1, 8] | Percentage of fibroblast cells which expressed MMP-3 [1, 9] | Percentage of fibroblast cells which expressed MMP-7 [1, 9] | Percentage of fibroblast cells which expressed MMP-9 [1, 9] | Percentage of fibroblast cells which expressed MMP-11 [1, 9] | Percentage of fibroblast cells which expressed MMP-13 [1, 9] | Percentage of fibroblast cells which expressed MMP-14 [1, 9] | Percentage of fibroblast cells which expressed SPARC [1, 9] | Percentage of fibroblast cells which expressed TGFα [1, 9] | Percentage of fibroblast cells which expressed TGFβ1 [1, 9] | Percentage of fibroblast cells which expressed TGFβ2 [1, 9] | Percentage of fibroblast cells which expressed TGFβ3 [1, 9] | Percentage of fibroblast cells which expressed MMP-3 [1, 10] | Percentage of fibroblast cells which expressed MMP-7 [1, 10] | Percentage of fibroblast cells which expressed MMP-9 [1, 10] | Percentage of fibroblast cells which expressed MMP-11 [1, 10] | Percentage of fibroblast cells which expressed MMP-13 [1, 10] | Percentage of fibroblast cells which expressed MMP-14 [1, 10] | Percentage of fibroblast cells which expressed SPARC [1, 10] | Percentage of fibroblast cells which expressed TGFα [1, 10] | Percentage of fibroblast cells which expressed TGFβ1 [1, 10] | Percentage of fibroblast cells which expressed TGFβ2 [1, 10] | Percentage of fibroblast cells which expressed TGFβ3 [1, 10] | Percentage of fibroblast cells which expressed MMP-3 [1, 11] | Percentage of fibroblast cells which expressed MMP-7 [1, 11] | Percentage of fibroblast cells which expressed MMP-9 [1, 11] | Percentage of fibroblast cells which expressed MMP-11 [1, 11] | Percentage of fibroblast cells which expressed MMP-13 [1, 11] | Percentage of fibroblast cells which expressed MMP-14 [1, 11] | Percentage of fibroblast cells which expressed SPARC [1, 11] | Percentage of fibroblast cells which expressed TGFα [1, 11] | Percentage of fibroblast cells which expressed TGFβ1 [1, 11] | Percentage of fibroblast cells which expressed TGFβ2 [1, 11] | Percentage of fibroblast cells which expressed TGFβ3 [1, 11] | Percentage of fibroblast cells which expressed MMP-3 [1, 12] | Percentage of fibroblast cells which expressed MMP-7 [1, 12] | Percentage of fibroblast cells which expressed MMP-9 [1, 12] | Percentage of fibroblast cells which expressed MMP-11 [1, 12] | Percentage of fibroblast cells which expressed MMP-13 [1, 12] | Percentage of fibroblast cells which expressed MMP-14 [1, 12] | Percentage of fibroblast cells which expressed SPARC [1, 12] | Percentage of fibroblast cells which expressed TGFα [1, 12] | Percentage of fibroblast cells which expressed TGFβ1 [1, 12] | Percentage of fibroblast cells which expressed TGFβ2 [1, 12] | Percentage of fibroblast cells which expressed TGFβ3 [1, 12] | mononuclear cells expressing NF-kB (mononuclear cells) | mononuclear cells expressing TGF-β (mononuclear cells) | PHF cells expressing MMP-3 [2] | PHF cells expressing MMP-7 [2] | PHF cells expressing MMP-9 [2] | PHF cells expressing MMP-11 [2] | PHF cells expressing MMP-13 [2] | PHF cells expressing MMP-14 [2] | PHF cells expressing SPARC [2] | PHF cells expressing TGF-α [2] | PHF cells expressing TGF-β1 [2] | PHF cells expressing TGF-β2 [2] | PHF cells expressing TGF-β3 [2] | PHF cells expressing MMP-3 [3] | PHF cells expressing MMP-7 [3] | PHF cells expressing MMP-9 [3] | PHF cells expressing MMP-11 [3] | PHF cells expressing MMP-13 [3] | PHF cells expressing MMP-14 [3] | PHF cells expressing SPARC [3] | PHF cells expressing TGF-α [3] | PHF cells expressing TGF-β1 [3] | PHF cells expressing TGF-β2 [3] | PHF cells expressing TGF-β3 [3] | PHF cells expressing MMP-3 [4] | PHF cells expressing MMP-7 [4] | PHF cells expressing MMP-9 [4] | PHF cells expressing MMP-11 [4] | PHF cells expressing MMP-13 [4] | PHF cells expressing MMP-14 [4] | PHF cells expressing SPARC [4] | PHF cells expressing TGF-α [4] | PHF cells expressing TGF-β1 [4] | PHF cells expressing TGF-β2 [4] | PHF cells expressing TGF-β3 [4] | PHF cells expressing MMP-3 [5] | PHF cells expressing MMP-7 [5] | PHF cells expressing MMP-9 [5] | PHF cells expressing MMP-11 [5] | PHF cells expressing MMP-13 [5] | PHF cells expressing MMP-14 [5] | PHF cells expressing SPARC [5] | PHF cells expressing TGF-α [5] | PHF cells expressing TGF-β1 [5] | PHF cells expressing TGF-β2 [5] | PHF cells expressing TGF-β3 [5] | PHF cells expressing MMP-11 [6] | PHF cells expressing MMP-3 [7] | PHF cells expressing MMP-7 [7] | PHF cells expressing MMP-9 [7] | PHF cells expressing MMP-13 [7] | PHF cells expressing MMP-14 [7] | PHF cells expressing SPARC [7] | PHF cells expressing TGF-α [7] | PHF cells expressing TGF-β1 [7] | PHF cells expressing TGF-β2 [7] | PHF cells expressing TGF-β3 [7]
